{"source": "patent US20250295648A1", "about": "(priority 2024, published 2025)", "test_system": "overall PD symptoms in PD patients with LID", "assay": "Clinical Global Impression of Change (CGI-C)", "type": "in vivo, human", "excerpt": "The CGI-C is a clinician-oriented scale that assesses the total improvement in the patient's condition relative to the clinical global impression of severity (CGI-S) scale conducted at baseline. The CGI-C rates the patient's condition from 0 to 7, with a rating of 0 indicating “no assessment”, a rating of 1 indicating “very much better”, and a rating of 7 indicating “very much worse”."}
{"smiles": "Cc1ccc(CNCC2(F)CCN(C(=O)c3ccc(F)c(Cl)c3)CC2)nc1", "note": "[NLX-112, (3-chloro-4-fluoro-phenyl)-[4-fluoro-4-{[(5-methyl-pyridin-2-ylmethyl)-amino]-methyl}piperidin-1-yl]methanone]", "values": [{"measurement": "CGI-C: proportion of patients minimally, much or very much improved", "setting": "Day 28", "value": 33, "unit": "%"}, {"measurement": "CGI-C: proportion of patients minimally, much or very much improved", "setting": "Day 42", "value": 53, "unit": "%"}, {"measurement": "CGI-C Minimally improved, number of patients", "setting": "Stable Dosing (d 42), n = 15", "value": 3}, {"measurement": "CGI-C Minimally improved, proportion of patients", "setting": "Stable Dosing (d 42), n = 15", "value": "(20%)"}, {"measurement": "CGI-C Minimally worse, number of patients", "setting": "Stable Dosing (d 42), n = 15", "value": 1}, {"measurement": "CGI-C Minimally worse, proportion of patients", "setting": "Stable Dosing (d 42), n = 15", "value": "(6.7%)"}, {"measurement": "CGI-C Much improved, number of patients", "setting": "Stable Dosing (d 42), n = 15", "value": 4}, {"measurement": "CGI-C Much improved, proportion of patients", "setting": "Stable Dosing (d 42), n = 15", "value": "(27%)"}, {"measurement": "CGI-C No change, number of patients", "setting": "Stable Dosing (d 42), n = 15", "value": 6}, {"measurement": "CGI-C No change, proportion of patients", "setting": "Stable Dosing (d 42), n = 15", "value": "(40%)"}, {"measurement": "CGI-C Total Improved, number of patients", "setting": "Stable Dosing (d 42), n = 15", "value": 8}, {"measurement": "CGI-C Total Improved, proportion of patients", "setting": "Stable Dosing (d 42), n = 15", "value": "(53%)"}, {"measurement": "CGI-C Very much improved, number of patients", "setting": "Stable Dosing (d 42), n = 15", "value": 1}, {"measurement": "CGI-C Very much improved, proportion of patients", "setting": "Stable Dosing (d 42), n = 15", "value": "(6.7%)"}, {"measurement": "CGI-C Minimally improved, number of patients", "setting": "Up-Titration (d 28), n = 15", "value": 3}, {"measurement": "CGI-C Minimally improved, proportion of patients", "setting": "Up-Titration (d 28), n = 15", "value": 20, "unit": "%"}, {"measurement": "CGI-C Minimally worse, number of patients", "setting": "Up-Titration (d 28), n = 15", "value": 1}, {"measurement": "CGI-C Minimally worse, proportion of patients", "setting": "Up-Titration (d 28), n = 15", "value": 6.7, "unit": "%"}, {"measurement": "CGI-C Much improved, number of patients", "setting": "Up-Titration (d 28), n = 15", "value": 2}, {"measurement": "CGI-C Much improved, proportion of patients", "setting": "Up-Titration (d 28), n = 15", "value": 13, "unit": "%"}, {"measurement": "CGI-C No change, number of patients", "setting": "Up-Titration (d 28), n = 15", "value": 9}, {"measurement": "CGI-C No change, proportion of patients", "setting": "Up-Titration (d 28), n = 15", "value": 60, "unit": "%"}, {"measurement": "CGI-C Total Improved, number of patients", "setting": "Up-Titration (d 28), n = 15", "value": 5}, {"measurement": "CGI-C Total Improved, proportion of patients", "setting": "Up-Titration (d 28), n = 15", "value": 33, "unit": "%"}, {"measurement": "CGI-C Very much improved, number of patients", "setting": "Up-Titration (d 28), n = 15", "value": 0}, {"measurement": "CGI-C overall PD symptoms, NLX-112 vs placebo", "setting": "days 28 and 42", "value": "no statistically significant differences"}]}
